Reference: US11028103B2, “Derivatized 3-styryl-cephalosporins” (priority 2013, dated 2021)

Key:
Format in all cases: biochemical
IMP-1 = biological target: T1, IMP-1 (Serratia marcescens, UniProt P52699); experiment: 10 minute IC50 β-lactamase inhibition assay (Chromacef hydrolysis); details: 10 min preincubation, 300 μM Chromacef, pH 7.0, 30° C.
T1 construct: made in house
From the text: (§1) A chromogenic cephalosporin, Chromacef, is synthesized and isolated as described by Yu, et al. (Yu S; Vosbeek, A; Corbella, K; Severson, J; Schesser, J; and Sutton, L D. A chromogenic cephalosporin for fJ-lactamase inhibitor screening assays (2012) Analytical Biochemistry, 438, 96-98) and used to monitor β-lactamase activity. β-Lactamase enzymes are isolated from bacteria by methods known to those knowledgeable in the art. A typical assay monitors the hydrolysis of Chromacef via the formation of a species which absorbs maximally at 442 nm (molar extinction coefficient=14,500). Absorption is monitored as a function of time in buffer (either 50 mM, pH 7.0 sodium phosphate or 100 mM, pH 7.0 Trisma buffer supplemented with 100 μM ZnCl2), 100-300 μM Chromacef and 1-3 volume percent DMSO cosolvent at 30° C. using a spectrophotometer having thermal-regulated cuvette holder. The assay is initiated by addition and mixing of an appropriate amount of β-lactamase.
(§2) The 100% activity control is performed as described above using 300 μM Chromacef, 3 volume percent DMSO cosolvent in buffer (either 50 mM, pH 7.0 sodium phosphate or 100 mM, pH 7.0 Trisma buffer supplemented with 100 μM ZnCl2) at 30° C. The reaction is initiated by addition and mixing of an appropriate amount of β-lactamase and the formation of product is followed as a function of time by monitoring the increase in absorbance at 442 nm as a function of time. The reaction is followed through <10% completeness and the initial rate determined via linear least squares analysis where the slope is the initial rate.
(§3) Ten-minute inhibition assays are performed as described above using 50-500 μM inhibitor cephalosporin, 0.5-5 volume percent DMSO cosolvent, and the same amount of enzyme as used in the control assay in buffer (either 50 mM, pH 7.0 sodium phosphate or 100 mM, pH 7.0 Trisma buffer supplemented with 100 μM ZnCl2) at 30° C. The reaction is initiated by after 10 minutes points by the addition and mixing of an appropriate amount of Chromacef to give a 300 μM concentration and the formation of product is followed as a function of time by monitoring the increase in absorbance at 442 nm as a function of time. The reaction is followed through <10% completeness and the initial rate determined via linear least squares analysis where the slope is the initial rate.

NDM-1 [1] = biological target: T2, NDM-1 (Klebsiella pneumoniae, UniProt C7C422); experiment: as above; details: 10 min preincubation, 300 μM Chromacef, pH 7.0, 30° C.
T2 construct: made in house
T2 sequence (C7C422 29-270, looked up, species assumed): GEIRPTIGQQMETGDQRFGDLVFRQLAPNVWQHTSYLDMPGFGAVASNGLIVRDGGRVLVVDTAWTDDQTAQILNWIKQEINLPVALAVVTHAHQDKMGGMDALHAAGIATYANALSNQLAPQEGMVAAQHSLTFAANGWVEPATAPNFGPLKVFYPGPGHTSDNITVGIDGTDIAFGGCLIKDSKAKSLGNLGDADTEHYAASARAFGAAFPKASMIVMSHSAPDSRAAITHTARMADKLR
From the text: as §1, §2, §3

VIM-2 = biological target: T3, VIM-2 (Escherichia coli, UniProt Q5U7L7); experiment: as above; details: 10 min preincubation, 300 μM Chromacef, pH 7.0, 30° C.
T3 construct: made in house
From the text: as §1, §2, §3

NDM-1 [2] = biological target: T2, NDM-1; experiment: Assay for determining irreversible β-lactamase inhibition (500-fold dilution); details: FIG. 2
Description: as §2
Inhibition of β-lactamase was performed at a concentration of β-lactamase 500 times greater than used in the control assay, and 50-500 μM cephalosporin inhibitor, buffer (either 50 mM, pH 7.0 sodium phosphate or 100 mM, pH 7.0 Trisma buffer supplemented with 100 μM ZnCl2), 0.5-5 volume percent DMSO cosolvent for various times. Activity assays were performed the same as the control reaction except 2.00 μL of this inhibition solution were substituted for the uninhibited enzyme solution resulting in a 500-fold dilution of inhibitor to eliminate any competitive binding of inhibitor to enzyme.

KPC-3 = biological target: T4, KPC-3 (Klebsiella pneumoniae, UniProt Q9F663, H272Y); experiment: 10 minute IC50 β-lactamase inhibition assay (Chromacef hydrolysis); details: 10 min preincubation, 300 μM Chromacef, pH 7.0, 30° C.
T4 construct: made in house
T4 sequence (Q9F663 25-293 H272Y): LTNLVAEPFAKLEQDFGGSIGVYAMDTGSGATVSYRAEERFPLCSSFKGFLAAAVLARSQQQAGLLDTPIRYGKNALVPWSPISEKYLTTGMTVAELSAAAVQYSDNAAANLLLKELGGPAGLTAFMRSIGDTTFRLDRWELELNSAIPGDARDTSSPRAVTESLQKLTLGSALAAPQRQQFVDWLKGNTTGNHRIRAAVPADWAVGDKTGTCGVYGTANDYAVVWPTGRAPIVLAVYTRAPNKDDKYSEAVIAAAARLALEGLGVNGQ
From the text: as §1, §2, §3

T1 sequence (P52699 19-246, looked up, species assumed): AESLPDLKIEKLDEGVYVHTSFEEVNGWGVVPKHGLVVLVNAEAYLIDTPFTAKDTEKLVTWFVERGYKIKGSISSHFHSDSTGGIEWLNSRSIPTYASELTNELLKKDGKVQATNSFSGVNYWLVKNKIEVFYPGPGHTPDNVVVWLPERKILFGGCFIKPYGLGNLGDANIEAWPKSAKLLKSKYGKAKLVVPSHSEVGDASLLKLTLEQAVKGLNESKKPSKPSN

IC50 (VIM-2) [µM]	Compound	IC50 (IMP-1) [µM]	IC50 (NDM-1 [1]) [µM]	irreversibility of the inhibition (NDM-1 [2]; activity after 500-fold dilution of inhibitor)	time-dependency of the inhibition (NDM-1 [2]; various incubation times)	IC50 (KPC-3) [µM]
10.7	O=C(Cc1ccccc1)NC1C(=O)N2C(C(=O)O)=C(C=Cc3ccc(CCl)cc3)CS[C@H]12 (some centres unmarked) [II-Cl/benzyl, 3-(4-(chloromethyl)styryl)-7-(2-phenylacetamido)-ceph-3-em-4-carboxylic acid]	61.8	6.4			
	O=C(Cc1ccccc1)NC1C(=O)N2C(C(=O)O)=C(C=Cc3ccc(CCl)cc3[N+](=O)[O-])CS[C@H]12 (some centres unmarked) [III-Cl/benzyl, 3-(2-nitro-4-(chloromethyl)styryl)-7-(2-phenylacetamido)-ceph-3-em-4-carboxylic acid]	0.584	0.584	irreversibility of the inhibition	time-dependency of the inhibition	0.973
